The source of these data is ChEMBL document CHEMBL1201862, “PubChem BioAssay data set” (2004).

What all share (test): NCI-60 cell line screen, 48 h
The test system of test [1] is SF-539.
Test [2] deals with HCT-15.
In test [3] the test system is TK-10.
In test [4] the test system is RPMI-8226.
Test [5] deals with IGROV-1.
Test [6] concerns Hs-578T.
Test [7] relates to NCI/ADR-RES.
For test [8], the system named is NCI-H522.
The subject of test [9] is LOX IMVI.
Test [10] has as its system HCT-116.
Test [11] concerns OVCAR-3.
Test [12] concerns MOLT-4.
Test [13] has as its system NCI-H226.
Test [14] concerns A549.
In test [15] the test system is Malme-3M.
In test [16] the test system is 786-0.
Test [17] has as its system SK-MEL-28.
For test [18], the system named is M14.
Test [19] relates to SK-MEL-5.
Test [20] deals with BT-549.

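1) Cells in 96-well plates. 2) Compound, 48 h, 5 concentrations. 3) Linear interpolation between surrounding doses. 4) Unreached endpoint = highest concentration. At the GI50, growth is halved.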 Activity calls are given as the source filed them. Rule as the data show it: active = GI50 up to about 1.1 µM and inactive = higher.

`O=C1c2ccccc2C(=O)c2c1oc1cc(O)c(Cl)cc21`: the GI50 in [1] is 5.41 µM (inactive); in test [2], 4.66 µM; in [3], 20.9 µM (inactive); in test [4], 4.54 µM (inactive); in test [5] it was 10.1 µM (inactive); in test [6] it was 2.29 µM (inactive). The GI50 in test [7] was 12.7 µM (inactive); in test [8], 9.42 µM (inactive); in test [9], 1.61 µM (inactive); in [10], 5.27 µM (inactive); in [11] it was 2.61 µM (inactive); in test [12] it was 12.3 µM (inactive). The GI50 in [13] was 14 µM (inactive); in [14], 3.01 µM (inactive); in test [15] it was 1.07 µM (active); in [16], 10.8 µM (inactive); in [17], 3.05 µM (inactive); in test [18], 3.1 µM (inactive). Besides, the GI50 was 0.299 µM (active) in test [19] and 4.97 µM (inactive) in [20].

For `NCCC1CN(C(=O)OCc2ccccc2)c2ccccc21` (stereo not given), the GI50 in [1] is 3.44 µM (inactive); in test [2] it was 1.78 µM; in [3], 22.6 µM (inactive); in test [4] it was 12.8 µM (inactive); in [5], 9.48 µM (inactive); in test [6], 26.2 µM (inactive). Further, the GI50 was 15.1 µM (inactive) in [7]; 14.5 µM (inactive) in [8]; 4.12 µM (inactive) in test [9]; 3.59 µM (inactive) in test [10]; 16.7 µM (inactive) in test [11]; 12 µM (inactive) in test [12]. For the same molecule, the GI50 in test [13] was 12 µM (inactive); in [14], 27.5 µM (inactive); in test [15] it was 14.8 µM (inactive); in test [16], 16.1 µM (inactive); in test [17] it was 18.6 µM (inactive); in test [18], 13.8 µM (inactive). For the same molecule, the GI50 in [19] was 11.2 µM (inactive); in test [20], 16.8 µM (inactive).

In the case of `CCOC(=O)/C=C(\C)Sc1cc(O)c2ccccc2c1O`, the GI50 in [1] is 21.5 µM (inactive); in test [2], 17.4 µM; in test [3] it was 23.7 µM (inactive); in test [4], 24.8 µM (inactive); in test [5], 12 µM (inactive); in [6] it was 58.9 µM (inactive). For the same molecule, the GI50 in test [7] is 25.3 µM (inactive); in test [8] it was 10.1 µM (inactive); in [9], 5.37 µM (inactive); in [10], 6.47 µM (inactive); in [11], 28.6 µM (inactive); in test [12] it was 8.05 µM (inactive). For the same molecule, the GI50 in [13] is 25.9 µM (inactive); in [14], 28.1 µM (inactive); in test [15], 9.66 µM (inactive); in test [16] it was 19.8 µM (inactive); in [17] it was 13.2 µM (inactive); in test [18] it was 10.8 µM (inactive). Also, the GI50 in test [19] is 12.6 µM (inactive); in [20], 22 µM (inactive).

As for `O=C(O)/C=C/C(=O)N1Cc2cc3ccccc3nc2C1`, the GI50 in [1] was > 100 µM (inactive); in test [2], more than 100 µM; in test [3], > 100 µM (inactive); in test [4], > 100 µM (inactive); in [5] it was > 100 µM (inactive); in test [6] it was > 100 µM (inactive). Further, the GI50 in [7], in test [8], in test [9], in test [10], in test [11] and in test [12] was > 100 µM (inactive) each time. Further, the GI50 in [13], in test [14], in test [15], in [16], in [17] and in [18] was > 100 µM (inactive) each time. Besides, the GI50 in [19] and in [20] was > 100 µM (inactive) throughout.

In the case of `ClCC[N+]12CC[N+](CCCl)(CC1)C2`, the GI50 in test [1] is > 100 µM (inactive); in test [2], more than 100 µM; in test [3], > 100 µM (inactive); in test [4] it was > 100 µM (inactive); in [5] it was > 100 µM (inactive); in [6], > 100 µM (inactive). The GI50 in test [7], in [8], in [9], in test [10], in test [11] and in test [12] was > 100 µM (inactive) in each case. The GI50 in test [13], in [14], in [15], in [16], in test [17] and in test [18] was > 100 µM (inactive) in each case. Further, the GI50 in [19] and in test [20] was > 100 µM (inactive) in each case.

As for `CNC(=O)/C=C/C1=CN2C(=O)c3ccc(C)c(O)c3NC(OC)C2C1` (stereo not given), the GI50 was < 0.0135 µM (active) in [1]; less than 0.0131 µM in [2]; 0.0142 µM (active) in test [3]; 0.0234 µM (active) in test [4]; 0.016 µM (active) in test [5]; < 0.0145 µM (active) in [6]. Moreover, the GI50 in test [7] is < 0.01 µM (active); in test [8] it was < 0.0128 µM (active); in [9], < 0.0142 µM (active); in [10], < 0.0148 µM (active); in [11] it was < 0.0134 µM (active); in test [12], 0.0183 µM (active). Also, the GI50 in test [13] was 0.0141 µM (active); in [14], < 0.0149 µM (active); in test [15], 0.0132 µM (active); in test [16], < 0.01 µM (active); in test [17], 0.0145 µM (active); in test [18] it was < 0.0124 µM (active). The GI50 in test [19] is 0.0116 µM (active); in test [20], < 0.01 µM (active).

As for `O=C(c1ccccc1)c1c(-c2ccccc2)n(-c2ccccc2)[nH]c(=O)c1=O`, the GI50 is 20.2 µM (inactive) in test [1]; 78.2 µM in [2]; 42.5 µM (inactive) in test [3]; 27.5 µM (inactive) in [4]; 54.5 µM (inactive) in test [5]; 21.6 µM (inactive) in test [6]. In addition, the GI50 in [7] is 62.4 µM (inactive); in [8], 0.361 µM (active); in [9], 25.6 µM (inactive); in test [10], > 100 µM (inactive); in test [11], 37.2 µM (inactive); in test [12], 28.2 µM (inactive). The GI50 in test [13] is 16.5 µM (inactive); in test [14], > 100 µM (inactive); in test [15], 22.5 µM (inactive); in test [16], 31.2 µM (inactive); in [17] it was > 100 µM (inactive); in test [18], > 100 µM (inactive). Besides, the figures for the GI50 in [19] and in [20] were > 100 µM (inactive) and 13.7 µM (inactive), respectively.

Consider `CN(C)CCCNc1c2ccccc2nc2cccc([N+](=O)[O-])c12`, for which the GI50 is 0.00197 µM (active) in test [1]; less than 0.001 µM in test [2]; 0.00215 µM (active) in test [3]; < 0.001 µM (active) in test [4]; < 0.001 µM (active) in test [5]; 0.00288 µM (active) in test [6]. Besides, the GI50 in test [7] is 0.00798 µM (active); in test [8], < 0.001 µM (active); in test [9], 0.00142 µM (active); in test [10] it was 0.00152 µM (active); in [11] it was 0.0143 µM (active); in test [12], 0.01 µM (active). In addition, the GI50 in test [13] was 0.0048 µM (active); in [14], < 0.001 µM (active); in test [15] it was < 0.001 µM (active); in [16], < 0.001 µM (active); in [17], 0.00235 µM (active); in test [18], < 0.001 µM (active). The GI50 in test [19] was < 0.001 µM (active); in [20] it was 0.00252 µM (active).

On to `CSc1ccc(-c2cc(-c3nc4ccccc4[nH]3)no2)cc1`, for which the GI50 in test [1] is 24.7 µM (inactive); in test [2] it was 9.62 µM; in test [3] it was 36.6 µM (inactive); in test [4], 24.4 µM (inactive); in test [5] it was 23.2 µM (inactive); in test [6], 37.1 µM (inactive). Moreover, the GI50 in [7] is 23.2 µM (inactive); in test [8], 20.3 µM (inactive); in test [9] it was 24.3 µM (inactive); in test [10] it was 32.5 µM (inactive); in [11], 22.1 µM (inactive); in test [12] it was 8.34 µM (inactive). The GI50 in [13] is 40.5 µM (inactive); in test [14] it was 23.6 µM (inactive); in [15], 35 µM (inactive); in test [16] it was 55.1 µM (inactive); in test [17] it was 27.6 µM (inactive); in test [18], 20.4 µM (inactive). In addition, the GI50 in [19] is 15.9 µM (inactive); in test [20] it was 19.6 µM (inactive).

For the molecule `CC1(c2ccc(Cl)cc2)N=C(NCCO)c2ccccc21` (stereo not given), the GI50 in test [1] was 2.25 µM (inactive); in [2], 26.9 µM; in test [3], 41.4 µM (inactive); in test [4] it was 2.74 µM (inactive); in [5] it was 22.9 µM (inactive); in test [6], 37.8 µM (inactive). The GI50 in [7] was 99.5 µM (inactive); in test [8], 26.4 µM (inactive); in [9], 13.8 µM (inactive); in [10], 5.37 µM (inactive); in test [11], 56.1 µM (inactive); in test [12] it was 8.49 µM (inactive). The GI50 is 11.1 µM (inactive) in test [13]; 23.7 µM (inactive) in test [14]; 17.9 µM (inactive) in [15]; 12.5 µM (inactive) in [16]; 9.75 µM (inactive) in [17]; 9.84 µM (inactive) in test [18]. Besides, the GI50 in test [19] was 14.8 µM (inactive); in test [20] it was 42 µM (inactive).
